How the values were obtained:
[1] = test system: DSS-induced colitis model mice; assay: DSS-induced colitis: colitis severity (body weight, fecal score, colon length); type: in vivo, mouse (C57BL/6); settings: Day 14; 50 μg/kg/day intraperitoneally on Days 9, 11 and 13
Excerpt: C57BL/6 strain mice (male, 8 to 12 weeks old) were fed with water containing 2% dextran sodium sulfate (manufactured by MP Bio, hereinafter sometimes referred to as “DSS”) for 4 days to prepare colitis model mice (hereinafter, sometimes referred to as “colitis group” in Examples 7 to 10). The mice taken with DSS for 4 days were fed with normal water from Day 5. The DSS intake start date was defined as Day 1 of the test, and the day before the DSS intake start date was defined as Day 0 of the test. In addition, a group in which C57BL/6 strain mice (male, 8 to 12 weeks old) were fed with normal water was defined as a “healthy group” (the same applies to Examples 8 to 10).
In order to evaluate colitis severity, the fecal condition was evaluated and the body weight was measured daily for the colitis model mice and healthy group prepared in the above item (1). The fecal condition was evaluated based on the following five-grade fecal scores. Specifically, the fecal scores were 0: normal; 1: soft but still formed; 2: very soft; 3: diarrhea; and 4: bloody feces. In addition, the colon length was measured as an index of the colitis severity.
To investigate the role of 5,6-DiHETE in the healing phase, the colitis model mice prepared in Example 7(1) were intraperitoneally injected with 5,6-DiHETE (manufactured by Cayman Chemical) (50 μg/kg/day) or HC-067047 (manufactured by Cayman Chemical) (1 mg/kg/day) on Days 9, 11 and 13 of the test (hereinafter, sometimes referred to as “5,6-DiHETE-administered group” and “HC-067047-administered group,” respectively, in Examples 9 and 10). HC-067047 is known to inhibit an increase of calcium ion concentration in endothelial cells.
The colitis severity was determined according to the index and criteria described in Example 7(2).

[2] = test system: NO production in HUVECs; assay: Histamine-induced NO production (nitrite and nitrate); type: cell-based, human; settings: pretreatment 0.1 μM, 15 minutes; histamine 10 μM
Experimental: In Examples 4 to 6, human umbilical vein endothelial cells (hereinafter, sometimes referred to as “HUVECs”, manufactured by Lonza) were cultured in EGM-2 (manufactured by Lonza K.K.). These cells (passages 4 to 9) were used for experiments after 4-hour starvation in EBM-2 (manufactured by Lonza K.K.) containing 2% FBS.
The HUVECs were washed three times with HEPES and incubated in HEPES supplemented with 1 mM L-arginine and 10 μM tetrahydrobiopterin. After equilibration for 30 minutes, the medium was exchanged, and the cells were incubated for additional 30 minutes. […] The conditioned media before and after the stimulation (100 μL each) were collected and centrifuged in each amount of 300 g for 3 minutes. The supernatants were collected, and used to measure nitrite and nitrate, as stable metabolites of NO, by an ENO-20 NOx analyzer (manufactured by Eicom Corporation). The degrees of increases of nitrite and nitrate levels after the stimulation were normalized with cellular protein contents.

[3] = test system: histamine-induced vascular permeability in mouse ears; assay: Modified Miles assay: histamine-induced vascular hyperpermeability (Evans blue extravasation); type: in vivo, mouse (C57BL/6); settings: pretreatment 0.1 μg/ear, 15 minutes, before 400 μg histamine
Experimental: Fifteen (15) minutes after the intracutaneous injection, a vehicle (80% acetone) or histamine (400 μg, manufactured by Molecular Probes) was percutaneously administered to the ventral surface of the ears. To evaluate vascular permeability, Evans blue (50 mg/kg, manufactured by Sigma) was injected intravenously 5 minutes after the administration of histamine. The mice were then euthanized by cervical dislocation 30 minutes after the injection of Evans blue. The ears were dissected, dried at 55° C., and weighed. Extravasated Evans blue present in the ears was extracted in formamide (manufactured by Molecular Probes), and quantified spectrophotometrically (manufactured by PerkinElmer Japan Co., Ltd.) at a wavelength of 610 nm.

[4] = test system: acute lung injury model mice; assay: Hydrochloric acid-induced acute lung injury (pneumonia, pulmonary edema); type: in vivo, mouse; settings: 50 μg/kg intraperitoneally 5 minutes before and 3 hours after HCl
Experimental: Fifty (50) μL of 0.1 N hydrochloric acid was nasally administered to 57BL/6 strain mice (male, 8 to 12 weeks old) to prepare acute lung injury model mice (hereinafter, sometimes referred to as “pneumonia group”). On the other hand, 50 μg/kg 5,6-DiHETE (manufactured by Cayman Chemical) was intraperitoneally administered 5 minutes before and 3 hours after the nasal administration of hydrochloric acid (hereinafter, sometimes referred to as “5,6-DiHETE-administered group”).
The lungs of the pneumonia group and the 5,6-DiHETE-administered group were collected 6 hours after the nasal administration of hydrochloric acid, fixed in 4% paraformaldehyde for 24 hours, embedded in paraffin, and cut into 2 μm-thick sections. Hematoxylin staining and eosin staining of these sections were performed according to a conventional method.
The wet/dry weight ratio was used as an index of pulmonary edema (Rachmilewitz D. et al., Gastroenterology, 97: 326-337(1989)). Specifically, 6 hours after the nasal administration of hydrochloric acid, the lungs were collected and the wet weights were measured. The lungs were then dried at 60° C. for 24 hours, and, thereafter, the dry weight was measured. In addition, the ventilatory capacity of the lungs was evaluated as an index of pneumonia using arterial blood oxygen saturations.

[5] = test system: anaphylaxis model mice; assay: Histamine-induced anaphylaxis: blood pressure and body temperature; type: in vivo, mouse (C57BL/6); settings: 50 μg/kg intravenously 15 minutes before histamine 50 mg/kg
Experimental: Histamine (50 mg/kg) lysed in a physiological saline solution was intravenously administered to C57BL/6 strain mice (male, 8 to 12 weeks old) to prepare anaphylaxis model mice (hereinafter, sometimes referred to as “anaphylaxis group”). […] L-NAME is an NO synthesis inhibitor. As indices of anaphylactic symptoms, a body temperature decrease and a blood pressure decrease were observed.

CC/C=C\C/C=C\C/C=C\C/C=C\C[C@@H](O)[C@@H](O)CCCC(=O)O (racemic) [5,6-DiHETE, (±) 5,6-dihydroxy-8Z,11Z,14Z,17Z-eicosatetraenoic acid]
colon length [1]: 6.4±0.1 cm
fecal score [1]: decreased to the normal level
relative body weight, of the initial weight [1]: 115.2±2.5%
histamine-induced NO production [2]: 0.11±0.06 pmol/μg protein
dye extravasation (Evans blue) in ear [3]: 0.06 ± 0.02 µg/mg
decrease in arterial blood oxygen saturation [4]: suppressed
epithelial damage and neutrophil tissue infiltration (HE-stained lung) ([4]; 6 hours): suppressed
moisture content of the lung tissue (wet/dry weight ratio) ([4]; 6 hours): significantly reduced except one case
reddishness of lung tissue (appearance) ([4]; 6 hours): improved
blood pressure [5]: 93.3±4.9 mmHg
body temperature decrease [5]: −0.2±0.1 °C
